Test results published in the CheMixHub drug solubility set.

Experiment: xn = mol fraction of the nth substance listed, in the solute-free solvent

Cl.N=C(N)N + CN(C)C=O + CCCO
solubility (g/100 g solution)
Conditions	278.15 K	283.15 K	288.15 K	293.15 K	298.15 K	303.15 K	308.15 K	313.15 K	318.15 K	323.15 K
x2 = 0.08378	10.4	11.5	12.6	13.4	14.4	15.6	16.5	17.8	18.9	20.5
x2 = 0.2607	20.4	21.6	22.3	23	23.9	24.8	25.6	26.3	27.2	28.1
x2 = 0.4515	27.6	28.9	29.7	30.7	31.8	32.8	33.4	34.5	35.3	36.7
x2 = 0.657	35.6	37.3	38.3	39.1	40.5	41.6	42.5	43.5	44.9	46.1
x2 = 0.8809	43.5	45.6	46.6	47.1	48.8	49.9	50.7	52.4	53.7	54

Nc1ccc(Oc2ccc(N)cc2)cc1 + CN(C)C=O + CCO
solubility (g/100 g solution)
Conditions	293.15 K	298.15 K	303.15 K	308.15 K	313.15 K	318.15 K	323.15 K	328.15 K	333.15 K
x2 = 0.06545	0.79	0.873	1.16	1.2	1.53	1.69	2.06	2.54	2.99
x2 = 0.1361	1.59	1.71	2.14	2.18	2.57	2.99	3.53	4.13	4.74
x2 = 0.2127	2.76	2.98	3.46	3.65	4.23	4.88	5.56	6.41	7.1
x2 = 0.2959	4.51	4.86	5.41	5.88	6.29	7.33	8.28	9.19	10.3
x2 = 0.3866	6.9	7.38	7.95	8.83	9.66	10.6	11.6	12.8	14.1
x2 = 0.486	9.91	10.6	11.3	12.2	13.3	14.3	15.5	16.9	18.1
x2 = 0.5952	13.6	14.3	15.1	16.1	17.2	18.5	19.6	21	22.4
x2 = 0.716	17.6	18.4	19.2	20.3	21.5	22.6	23.9	25.2	26.7
x2 = 0.8501	21.8	22.5	23.2	24	25.6	26.7	27.9	29.2	30.6

Cc1[nH]c(=O)c(C#N)cc1-c1ccncc1 + CN(C)C=O + O
solubility (g/100 g solution)
Conditions	278.15 K	283.15 K	288.15 K	293.15 K	298.15 K	303.15 K	308.15 K	313.15 K	318.15 K	323.15 K
x2 = 0.02666	0.00219	0.00258	0.00301	0.00349	0.00402	0.00455	0.00511	0.00573	0.0064	0.00714
x2 = 0.05806	0.00523	0.00608	0.00705	0.00812	0.00928	0.0104	0.0117	0.013	0.0144	0.016
x2 = 0.09556	0.00909	0.0105	0.0121	0.014	0.0159	0.0179	0.02	0.0222	0.0245	0.0271
x2 = 0.1412	0.0128	0.0148	0.0171	0.0197	0.0224	0.0253	0.0283	0.0314	0.0347	0.0384
x2 = 0.1978	0.0159	0.0184	0.0208	0.0242	0.028	0.0318	0.0357	0.0397	0.0439	0.0488
x2 = 0.27	0.0186	0.0214	0.0246	0.029	0.0328	0.0371	0.0419	0.047	0.0524	0.0585
x2 = 0.3652	0.0209	0.0244	0.028	0.0328	0.0376	0.043	0.0487	0.0547	0.0613	0.068
x2 = 0.4965	0.023	0.0268	0.0315	0.0364	0.0416	0.0476	0.0545	0.0615	0.0685	0.0771
x2 = 0.6893	0.0242	0.0285	0.033	0.0391	0.0448	0.0505	0.0577	0.0654	0.0732	0.0835

Cc1c(Br)cccc1C(=O)O + CN(C)C=O + O
solubility (g/100 g solution)
Conditions	x2 = 0.039	x2 = 0.091	x2 = 0.16	x2 = 0.259	x2 = 0.411	x2 = 0.677
278.15 K	5.54	9.19	12.7	16.1	19.4	22.9
283.15 K	8.07	11.1	15.1	18.9	22.7	26.7
288.15 K	6.03	11.5	16.6	21.4	26	30.7
293.15 K	9.6	15.3	20.6	25.5	30.3	35.3
298.15 K	11.6	18.1	23.9	29.3	34.6	40.1
303.15 K	13.8	21	27.5	33.4	39.2	45.3
308.15 K	16	24.1	31.1	37.6	43.8	50.5
313.15 K	18.6	27.5	35.2	42.1	48.7	55.9
318.15 K	21.6	31.2	39.4	46.6	53.5	61.2
323.15 K	24.4	35	43.7	51.3	58.6	66.8
328.15 K	27.9	39	48.1	55.9	63.4	72

Nc1cccc(S(=O)(=O)c2cccc(N)c2)c1 + CN(C)C=O + O
solubility (g/100 g solution)
Conditions	283.15 K	288.15 K	293.15 K	298.15 K	303.15 K	308.15 K	313.15 K	318.15 K	323.15 K	328.15 K
x2 = 0.02666	0.202	0.267	0.355	0.463	0.615	0.787	1.01	1.26	1.53	1.97
x2 = 0.05806	0.784	1.03	1.32	1.65	2.08	2.63	3.23	3.98	4.79	5.92
x2 = 0.09556	2.09	2.63	3.21	3.95	4.75	5.77	6.85	8.08	9.45	11
x2 = 0.1412	4.93	5.86	6.87	8.09	9.39	10.8	12.4	14.1	15.9	17.7
x2 = 0.1978	7.85	9.25	10.8	12.5	14.2	16.2	18.4	20.5	22.9	25.4
x2 = 0.27	11.4	13	15	16.9	19.1	21.5	23.9	26.7	29.3	32.1
x2 = 0.3652	14.4	16.6	18.8	21.2	23.6	26.3	29.1	31.9	34.6	37.4
x2 = 0.4965	17.8	20.1	22.5	25.2	27.8	30.7	33.8	36.6	39.7	42.6
x2 = 0.6893	20.8	23.1	25.7	28.2	31.1	33.9	36.5	39.4	42.3	45.4

Nc1nccnc1Cl + CN(C)C=O + O
solubility (g/100 g solution)
Conditions	278.15 K	283.15 K	288.15 K	293.15 K	298.15 K	303.15 K	308.15 K	313.15 K	318.15 K	323.15 K
x2 = 0.02666	0.123	0.162	0.208	0.257	0.308	0.359	0.41	0.469	0.522	0.579
x2 = 0.05806	0.379	0.491	0.623	0.761	0.903	1.04	1.18	1.34	1.47	1.62
x2 = 0.09556	0.721	0.929	1.17	1.43	1.69	1.95	2.2	2.48	2.72	2.98
x2 = 0.1412	1.01	1.3	1.64	2.01	2.38	2.75	3.11	3.5	3.86	4.23
x2 = 0.1978	1.14	1.5	1.9	2.35	2.8	3.27	3.75	4.24	4.69	5.16
x2 = 0.27	1.26	1.69	2.14	2.67	3.17	3.72	4.29	4.84	5.41	6.03
x2 = 0.3652	1.38	1.82	2.33	2.93	3.56	4.17	4.81	5.48	6.15	6.86
x2 = 0.4965	1.5	2.02	2.55	3.24	3.93	4.64	5.37	6.21	7	7.83
x2 = 0.6893	1.59	2.12	2.72	3.45	4.22	5.01	5.87	6.75	7.69	8.67

CC(CCc1ccccc1)NCC(O)c1ccc(O)c(C(N)=O)c1.Cl (centres undefined) + CO + CC#N
solubility (g/100 g solution)
Conditions	288.15 K	293.15 K	298.15 K	303.15 K	308.15 K	313.15 K	318.15 K	323.15 K	328.15 K
x2 = 0.2426	0.0461	0.0674	0.0984	0.137	0.19	0.268	0.388	0.533	0.751
x2 = 0.3544	0.126	0.167	0.222	0.282	0.389	0.49	0.639	0.847	1.1
x2 = 0.4606	0.172	0.234	0.323	0.436	0.58	0.766	1.03	1.38	1.81
x2 = 0.5616	0.411	0.533	0.674	0.884	1.1	1.4	1.74	2.17	2.71
x2 = 0.6577	0.787	0.998	1.23	1.54	1.92	2.35	2.89	3.46	4.2
x2 = 0.7493	1.73	2.02	2.44	2.83	3.37	3.94	4.42	5.29	6.03
x2 = 0.8367	2.23	2.77	3.37	4.11	5.04	6.01	7.18	8.54	10.1
x2 = 0.9202	4.34	5.22	6.18	7.32	8.68	10.1	11.7	13.5	15.6
